The test system of series [1] is L1210 cells. Put plainly: L1210 growth inhibition, IC50 determination. Format: cell-based, murine. Here is the method: Murine L1210 leukemia cells (ATCC CCL 219) were maintained in logarithmic growth in RPMI-1640 medium containing 10% fetal calf serum or a semi-synthetic equivalent, NuSerum, 2% HEPES-MOPS buffer and 1 mM aminoguanidine.
Series [2] relates to polyamine transport apparatus. Put plainly: Competitive uptake determination: inhibition of [3H]spermidine transport into L1210 cells. Format: cell-based, murine. To be noted: analogue inhibition of spermidine transport. Here is the method:
The ability of the norspermidines, spermidines, homospermidines, 4,5- and 5,5-triamines to compete with radiolabeled SPD for uptake was evaluated (Table 1). The general trend is that the terminally alkylated triamines have higher Ki values than the unalkylated triamines and are thus less easily taken up by the cell. […] This is not completely true with the norspermidines and the 5,5 triamines. The relationship holds with methyl and ethyl but not for the propyl of the latter two systems. Finally, the number of methylenes separating the amines plays a role in determining polyamine uptake properties. In general the effectiveness with which the analogues compete for uptake is spermidines≈homospermidines>4,5 triamines>5,5 triamines>norspermidine.
The polyamine derivatives were studied for their ability to compete with [^3H]-SPD for uptake into L1210 cells [Bergeron et al, J. Med. Chem., Vol. 37, supra]. Lineweaver-Burk plots indicated a simple competitive inhibition with respect to SPD.

Series [3] relates to L1210 cells. Kind of series: Polyamine pool analysis in L1210 cells. Format: cell-based, murine. Particulars: for activity at 25 µM / activity at 125 µM / activity at 100 µM / activity at 500 µM / activity at 2 µM / activity at 10 µM / activity at 15 µM / activity at 75 µM: Mus musculus, L1210, 48 h, % of untreated control; for Analogue: intracellular amount, 48 hours. Here is the method: The following guidelines were adopted for studying the impact of the analogues on polyamine pools (Table 2). The measurements were made after a 48-hour exposure to the analogue, and two different concentrations of analogue were evaluated in each case.
(§1) The cells were washed twice with cold RPMI-1640, and the pellet was treated with 0.6 N HClO4 (1 ml/10^7 cells). Polyamine contents of the perchloric acid extracts were quantitated by HPLC of the DANSYL derivatives [Bergeron et al, J. Med. Chem., Vol. 37, supra].

In series [4] the test system is ornithine decarboxylase (ODC). Kind of series: ODC activity in treated L1210 cells. To be noted: L1210, 1 μM at 4 hours. The format is cell-based, murine. Here is the method:
(§2) On the basis of these studies, it was elected to evaluate the impact of the triamines on ODC and AdoMetDC at 4 and 6 hours, respectively.
(§3) ODC and AdoMetDC activities were determined as ^14CO2 released from [^14C]-carboxyl-labeled L-ornithine [Seely et al, “Ornithine Decarboxylase (Mouse Kidney),” Methods Enzymol., Vol. 94, pages 158-161 (1983)] or S-adenosyl-L-methionine [Pegg et al, “S-Adenosylmethionine Decarboxylase (Rat Liver),” Methods Enzymol., Vol. 94, pages 234-239 (1983)], respectively. Included in each assay were untreated L1210 cells as controls, as well as cells treated with DEHSPM, a drug having a known reproducible effect on each enzyme, as positive controls.

Series [5] deals with S-adenosylmethionine decarboxylase (AdoMetDC). Put plainly: AdoMetDC activity in treated L1210 cells. The format is cell-based, murine. To be noted: L1210, 1 μM at 6 hours. Here is the method:
as §2, §3

Series [6] deals with spermidine/spermine acetyltransferase (SSAT). Kind of series: SSAT activity in treated L1210 cells. The format is cell-based, murine. To be noted: L1210, 10 μM at 48 hours (triamine analogues). The source says: Spermidine/spermine N^1-acetyltransferase activity was based on quantitation of [^14C]-N^1-acetylspermidine formed by acetylation of SPD with [^14C] acetyl coenzyme A according to the method of Libby et al [Biochem. Pharmacol., Vol. 38, supra]. Cells treated with DENSPM were positive controls.

Series [7] deals with L1210 cells. Kind of series: Metabolic transformation of polyamine analogues by L1210 cells. The format is in vitro ADME, murine. Particulars: 48 hours. Here is the method: as §1
[8] abbreviates: L1210, 48 hour exposure, Trihydrochloride, read-out: IC50 48 hour.
The mark [9] stands for this setting: Mus musculus, L1210, 48 h, L1210, 48 hour exposure, read-out: IC50 48 hour.
Setting [10] is: Mus musculus, L1210, 96 h, L1210, 96 hour exposure, read-out: IC50 96 hour.

Structures are written as SMILES. pIC50, pKi: −log10 of the molar value. Entries after “also recorded” stand apart in the source; their conditions may differ. Where a name gives a salt, the structure may show the parent alone. Read-outs that look alike come from different tables or passages of the source.

In the case of `CCNCCCCNCCCCNCC` [DEHSPD, N^1,N^9-Diethylhomospermidine Trihydrochloride], the pIC50 was 4.60 to 4.74 in the series on L1210 cells [1] (setting [8]), 4.60 in the series on L1210 cells [1] (setting [9]) and 6.40 to 6.52 with L1210 cells [1] (setting [10]). This compound also had a negative logarithm of the Ki (pKi) in series [2] of 4.72. Besides, the activity at 25 µM with L1210 cells [3] (25 μM, read-out: Put) was determined as 0%; in the series on L1210 cells [3] (25 μM, read-out: Spd), 6%; in the series on L1210 cells [3] (25 μM, read-out: Spm), 114%. Also, the activity at 125 µM with L1210 cells [3] (125 μM, read-out: Put) is 0%; in the series with L1210 cells [3] (125 μM, read-out: Spd) it was 3%; with L1210 cells [3] (125 μM, read-out: Spm) it was 97%. The Analogue was found to be 4.61 nmol/10^6 cells in the series on L1210 cells [3] (25 μM) and 4.69 nmol/10^6 cells in the series with L1210 cells [3] (125 μM). The “ODC activity, percent of untreated control” value (from here on “ODC activity, percent”) in series [4] is given as 47% of untreated control. The “AdoMetDC activity, percent of untreated control” value (“AdoMetDC activity, percent” below) in series [5] is on record as 90% of untreated control. For the same compound, the “SSAT activity, percent of untreated control” value (“SSAT activity, percent” below) in series [6] is on record as 640% of untreated control. In addition, the “Parent drug as % of total drug in the cell” value (“Parent drug as %” below) with L1210 cells [7] (100 μM analogue) came to 100%. The “Parent drug in L1210 cells” value in the series with L1210 cells [7] (100 μM analogue) turned out to be 4215 pmols/10^6. In addition, in the series with L1210 cells [7] (100 μM analogue, listed as DE-[4,4], Trihydrochloride), the “N-Monodealkylation (result in words)” value is listed as “do not show significant N-deethylation; also recorded: no N-deethylation”.

As to `CCNCCCNCCCNCC` [DENSPD, N^1,N^7-Diethylnorspermidine Trihydrochloride], the pIC50 in the series with L1210 cells [1] (setting [9]) was < 4.00; in the series on L1210 cells [1] (setting [10]), 5.00. In series [2], the pKi is 3.60. The activity at 100 µM turned out to be 0% with L1210 cells [3] (100 μM, read-out: Put); 17% in the series with L1210 cells [3] (100 μM, read-out: Spd); 74% with L1210 cells [3] (100 μM, read-out: Spm). For the same compound, the activity at 500 µM in the series with L1210 cells [3] (500 μM, read-out: Put) is 0%; with L1210 cells [3] (500 μM, read-out: Spd), 6 to 15%; in the series on L1210 cells [3] (500 μM, read-out: Spm), < 50%. Moreover, the Analogue was 3.67 nmol/10^6 cells in the series on L1210 cells [3] (100 μM) and 3.77 nmol/10^6 cells in the series with L1210 cells [3] (500 μM). The “ODC activity, percent” value in series [4] is 80% of untreated control. In addition, the “AdoMetDC activity, percent” value in series [5] is 45% of untreated control. Besides, in series [6], the “SSAT activity, percent” value was 780% of untreated control. In addition, the “Parent drug as %” value in the series with L1210 cells [7] (500 μM analogue) was 90.7%. Moreover, in the series with L1210 cells [7] (500 μM analogue), the “Parent drug in L1210 cells” value was determined as 3761 pmols/10^6.

As for `CNCCCCCNCCCCNC` [DM(4,5), 2,7,13-Triazatetradecane Trihydrochloride], the pIC50 in the series with L1210 cells [1] (setting [8]) is 5.70; in the series on L1210 cells [1] (setting [9]), 5.22 to 5.70; in the series on L1210 cells [1] (setting [10]) it was 6.92 to 6.96. The pKi in series [2] is 4.68. The activity at 2 µM with L1210 cells [3] (2 μM, read-out: Put) was determined as 0%; in the series on L1210 cells [3] (2 μM, read-out: Spd), 33%; with L1210 cells [3] (2 μM, read-out: Spm), 112%. The activity at 10 µM in the series on L1210 cells [3] (10 μM, read-out: Put) is 0%; in the series with L1210 cells [3] (10 μM, read-out: Spd), 18%; in the series with L1210 cells [3] (10 μM, read-out: Spm), 111%. Moreover, the Analogue in the series with L1210 cells [3] (2 μM) stood at 2.79 nmol/10^6 cells; in the series on L1210 cells [3] (10 μM) it was 5.36 nmol/10^6 cells. Besides, the “ODC activity, percent” value in series [4] is listed as 56% of untreated control. In addition, the “AdoMetDC activity, percent” value in series [5] is 71% of untreated control. The “SSAT activity, percent” value in series [6] is listed as 130% of untreated control. Moreover, in the series on L1210 cells [7] (2 μM analogue), the “N-Monodealkylation (result in words)” value is reported as “no N-demethylation”. In the series with L1210 cells [7] (2 μM analogue), the “Parent drug as %” value was 100%. The “Parent drug in L1210 cells” value in the series on L1210 cells [7] (2 μM analogue) came to 2790 pmols/10^6.

In the case of `CNCCCCCNCCCCCNC` [DM(5,5), 2,8,14-Triazapentadecane Trihydrochloride], the figures for the pIC50 with L1210 cells [1] (setting [9]) and in the series with L1210 cells [1] (setting [10]) were 4.82 and 6.40, respectively. This compound also showed a negative logarithm of the Ki (pKi) in series [2] of 3.88. In addition, the activity at 15 µM in the series with L1210 cells [3] (15 μM, read-out: Put) was 0%; in the series with L1210 cells [3] (15 μM, read-out: Spd) it was 33%; in the series with L1210 cells [3] (15 μM, read-out: Spm), 115%. For the same compound, the activity at 75 µM worked out at 0% with L1210 cells [3] (75 μM, read-out: Put); 20% with L1210 cells [3] (75 μM, read-out: Spd); 101% with L1210 cells [3] (75 μM, read-out: Spm). The results for the Analogue in the series with L1210 cells [3] (15 μM) and in the series on L1210 cells [3] (75 μM) were 2.56 nmol/10^6 cells and 3.61 nmol/10^6 cells, respectively. Also, the “ODC activity, percent” value in series [4] was 105% of untreated control. Besides, the “AdoMetDC activity, percent” value in series [5] was 97% of untreated control. Also, in series [6], the “SSAT activity, percent” value is listed as 90% of untreated control. The “N-Monodealkylation (result in words)” value in the series on L1210 cells [7] (15 μM analogue) was “no N-demethylation”. Further, the “Parent drug as %” value with L1210 cells [7] (15 μM analogue) was 100%. Besides, the “Parent drug in L1210 cells” value in the series on L1210 cells [7] (15 μM analogue) is given as 2560 pmols/10^6.

Take `CNCCCCNCCCCNC` [DMHSPD, N^1,N^9-Dimethylhomospermidine Trihydrochloride]: the pIC50 in the series on L1210 cells [1] (setting [9]) was < 4.00; with L1210 cells [1] (setting [10]), 6.05. Also, the pKi in series [2] is 5.26. Moreover, the activity at 100 µM in the series on L1210 cells [3] (100 μM, read-out: Put) was 0%; in the series with L1210 cells [3] (100 μM, read-out: Spd), 3%; with L1210 cells [3] (100 μM, read-out: Spm) it was 106%. Also, the activity at 500 µM with L1210 cells [3] (500 μM, read-out: Put) was found to be 0%; in the series on L1210 cells [3] (500 μM, read-out: Spd) it was 0%; in the series with L1210 cells [3] (500 μM, read-out: Spm), 106%. For the same compound, the values for the Analogue with L1210 cells [3] (100 μM) and in the series on L1210 cells [3] (500 μM) were 5.51 nmol/10^6 cells and 5.85 nmol/10^6 cells, respectively. Besides, the “ODC activity, percent” value in series [4] is recorded as 20% of untreated control. The “AdoMetDC activity, percent” value in series [5] is 86% of untreated control. Besides, the “SSAT activity, percent” value in series [6] was 510% of untreated control. Also, in the series with L1210 cells [7] (100 μM analogue), the “N-Monodealkylation (result in words)” value is reported as “no N-demethylation”. Further, in the series with L1210 cells [7] (100 μM analogue), the “Parent drug as %” value was 100%. For the same compound, the “Parent drug in L1210 cells” value in the series on L1210 cells [7] (100 μM analogue) came out at 5500 pmols/10^6.

The values above are taken from patent US20020045780A1, “Biologically active spermidine analogues, pharmaceutical compositions and methods of treatment” (priority 1997, published 2002).
